Calls of active or inactive are those of the source. No cut-off for these calls is given here.
Tests used:
RAW264.7 [1] = assay: Anti-inflammatory activity in mouse RAW264.7 assessed as decrease in LPS-induced IL-1beta mRNA expression incubated for 16 hrs by RT-PCR analysis; assay type: functional, cell-based; settings: dose 0.1-62.5 µM
RAW264.7 [2] = assay: Anti-inflammatory activity in mouse RAW264.7 assessed as decrease in LPS-induced COX-2 mRNA expression incubated for 16 hrs by RT-PCR analysis; assay type: functional, cell-based; settings: dose 0.1-62.5 µM
RAW264.7 [3] = assay: Anti-inflammatory activity in mouse RAW264.7 assessed as LPS-induced TNF-alpha mRNA expression at 62.5 uM incubated for 16 hrs by RT-PCR analysis relative to control; assay type: functional
RAW264.7 [4] = assay: Anti-inflammatory activity in mouse RAW264.7 assessed as decrease in LPS-induced IL-1beta mRNA expression at 62.5 uM incubated for 16 hrs by RT-PCR analysis; assay type: functional, cell-based
RAW264.7 [5] = assay: Anti-inflammatory activity in mouse RAW264.7 assessed as LPS-induced IL-1beta mRNA expression at 62.5 uM incubated for 16 hrs by RT-PCR analysis relative to control; assay type: functional
RAW264.7 [6] = assay: Anti-inflammatory activity in mouse RAW264.7 assessed as LPS-induced COX-2 mRNA expression at 62.5 uM incubated for 16 hrs by RT-PCR analysis relative to control; assay type: functional
in vitro = settings: mouse
Description: Cytotoxicity against mouse RAW264.7 cells assessed as cell viability at 6.25 uM by MTT assay relative to control

RAW264.7 [7] = assay: Anti-inflammatory activity in mouse RAW264.7 assessed as decrease in LPS-induced iNOS mRNA expression at 62.5 uM incubated for 16 hrs by RT-PCR analysis relative to control; assay type: functional; parameters: scale not given: the % may be the effect or the level left
RAW264.7 [8] = assay: Anti-inflammatory activity in mouse RAW264.7 assessed as decrease in LPS-induced COX-2 mRNA expression at 62.5 uM incubated for 16 hrs by RT-PCR analysis; assay type: functional, cell-based
RAW264.7 [9] = assay: Anti-inflammatory activity in mouse RAW264.7 assessed as LPS-induced iNOS mRNA expression at 62.5 uM incubated for 16 hrs by RT-PCR analysis relative to control; assay type: functional
RAW264.7 [10] = assay: Anti-inflammatory activity in mouse RAW264.7 assessed as decrease in LPS-induced TNF-alpha mRNA expression at 62.5 uM incubated for 16 hrs by RT-PCR analysis relative to control; assay type: functional; parameters: scale not given: the % may be the effect or the level left
RAW264.7 [11] = assay: Anti-inflammatory activity in mouse RAW264.7 assessed as decrease in LPS-induced IL-1beta mRNA expression at 62.5 uM incubated for 16 hrs by RT-PCR analysis relative to control; assay type: functional; parameters: scale not given: the % may be the effect or the level left
RAW264.7 [12] = assay: Anti-inflammatory activity in mouse RAW264.7 assessed as decrease in LPS-induced COX-2 mRNA expression at 62.5 uM incubated for 16 hrs by RT-PCR analysis relative to control; assay type: functional; parameters: scale not given: the % may be the effect or the level left
RAW264.7 [13] = assay: Cytotoxicity against mouse RAW264.7 cells assessed as cell viability at 6.25 uM by MTT assay; assay type: toxicity, cell-based; settings: raw264.7, 6.25 µM

In the case of `CCCCCCCCc1nc2ccccc2c(=O)[nH]1`, the Activity (RAW264.7 [1]) is reported as “Dose-Dependent Effect”, the Activity (RAW264.7 [2]) is reported as “Dose-Dependent Effect” and the Activity (RAW264.7 [3]) is reported as 44%. The Activity (RAW264.7 [4]) was “Active”, the Activity (RAW264.7 [5]) was 6.92% and the Activity (RAW264.7 [6]) was 11.14%. For the same compound, the viability at 6.25 µM (in vitro; RAW264.7 cells) was over 80%.

In the case of `CC(C)c1nc2ccccc2c(=O)[nH]1`, the Activity (RAW264.7 [4]) is reported as “Active”, the Activity (RAW264.7 [5]) is reported as 14.02% and the Activity (RAW264.7 [6]) is reported as 20.47%. For the same compound, the viability at 6.25 µM (in vitro; RAW264.7 cells) was over 80%.

For `CC(c1ccccc1)n1cnc2ccccc2c1=O` (configuration not stated), the Activity (RAW264.7 [7]) was under 22%, the Activity (RAW264.7 [8]) was “Active” and the viability at 6.25 µM (in vitro; RAW264.7 cells) was over 80%.

Compound `O=c1[nH]cnc2ccccc12` [QUINAZOLINONE] has a viability at 6.25 µM (in vitro; raw264.7) of over 80%.

With `O=c1[nH]cnc2ncccc12` the Activity (RAW264.7 [9]) was 62.82%, the Activity (RAW264.7 [4]) was “inactive” and the Activity (RAW264.7 [8]) was “inactive”. For the same compound, the viability at 6.25 µM (in vitro; RAW264.7 cells) was over 80%.

For `O=c1[nH]cnc2ccc(F)cc12`, the Activity (RAW264.7 [10]) was under 50%, the Activity (RAW264.7 [11]) was 10.85% and the viability at 6.25 µM (in vitro; RAW264.7 cells) was over 80%.

For `O=c1[nH]c(-c2cccc(C(F)(F)F)c2)nc2ccccc12`, the Activity (RAW264.7 [9]) was 13.98%, the Activity (RAW264.7 [5]) was under 35% and the Activity (RAW264.7 [8]) was “inactive”. It also gave a viability at 6.25 µM (in vitro; RAW264.7 cells) of over 80%.

`Cn1cnc2ccccc2c1=O` showed an Activity (RAW264.7 [7]) of under 22%, an Activity (RAW264.7 [12]) of 28.85% and a viability at 6.25 µM (in vitro; RAW264.7 cells) of over 80%.

With `Oc1nc(C2CCCCC2)nc2ccccc12` the Activity (RAW264.7 [1]) was “Dose-Dependent Effect”, the Activity (RAW264.7 [2]) was “Dose-Dependent Effect” and the Activity (RAW264.7 [3]) was 44%. For the same compound, the Activity (RAW264.7 [11]) was 75.72%, the Activity (RAW264.7 [6]) was over 80% and the viability at 6.25 µM (in vitro; RAW264.7 cells) was over 80%.

In the case of `Cc1cccc(-c2nc(O)c3ccccc3n2)c1`, the Activity (RAW264.7 [5]) is reported as under 35%, the Activity (RAW264.7 [6]) is reported as 3.79% and the viability at 6.25 µM (in vitro; RAW264.7 cells) is reported as over 80%.

Work on `COc1ccc(-c2nc3ccccc3c(=O)[nH]2)cc1` yielded a viability at 6.25 µM (in vitro; RAW264.7 cells) of over 80%.

Work on `Oc1ncnc2cc(Cl)ccc12` yielded an Activity (RAW264.7 [10]) of under 50%, an Activity (RAW264.7 [11]) of 10.85% and a viability at 6.25 µM (in vitro; RAW264.7 cells) of over 80%.

With `COc1ccc(-c2nc(O)c3ccccc3n2)cc1` the Activity (RAW264.7 [5]) was under 35% and the Activity (RAW264.7 [8]) was “inactive”.

With `CCC(C)c1nc2ccccc2c(=O)[nH]1` (configuration not stated) the Activity (RAW264.7 [3]) was 44%, the Activity (RAW264.7 [4]) was “Active” and the Activity (RAW264.7 [5]) was 4.02%. It also gave an Activity (RAW264.7 [6]) of 0.5% and a viability at 6.25 µM (in vitro; RAW264.7 cells) of over 80%.

`Cc1nc2ccccc2c(=O)[nH]1` showed an Activity (RAW264.7 [5]) of 58.79%, an Activity (RAW264.7 [6]) of 60.96% and a viability at 6.25 µM (in vitro; RAW264.7 cells) of over 80%.

With `O=c1[nH]c(/C=C/c2ccccc2)nc2ccccc12` the Activity (RAW264.7 [13]) was “Toxic”.

`CCCCCCc1nc2ccccc2c(=O)[nH]1` gave an Activity (RAW264.7 [5]) of 3.1%, an Activity (RAW264.7 [12]) of 95% and a viability at 6.25 µM (in vitro; RAW264.7 cells) of over 80%.

`O=c1[nH]cnc2cc(F)ccc12` gave an Activity (RAW264.7 [10]) of under 50%, an Activity (RAW264.7 [11]) of 10.85% and a viability at 6.25 µM (in vitro; RAW264.7 cells) of over 80%.

With `O=c1c2ccccc2ncn1-c1ccccc1` the Activity (RAW264.7 [7]) was under 22%, the Activity (RAW264.7 [12]) was 28.46% and the viability at 6.25 µM (in vitro; RAW264.7 cells) was over 80%.

From ChEMBL document CHEMBL5365509, “Structure-Activity Relationship and Molecular Docking of Quinazolinones Inhibiting Expression of COX-2, IL-1β, iNOS, and TNF-α through NF-κB Pathways” (ACS Med Chem Lett, 2023)
